From patent US5541159A, “Calcitonin derivatives” (Sandoz Ltd., priority 1988, dated 1996)

System: ovulation
Assay: inhibition of ovulation in female rats (M. Marko and E. Fluckiger)
Type: in vivo
Conditions: s.c.
Description: The LHRH antagonists of the invention, in particular the compounds of formula XI inhibit luteinizing hormone secretion, e.g. as indicated by an inhibition of ovulation in animals. This test is effected according to M. Marko and E. Fluckiger, Experientia 30, […] (1974).
Adult female rats of the Ivanovas Wistar strain (Sprague Dawley, Iva: SDIV, 200-250 g) are kept under standard conditions: 14 h light (from 0.400 to 18.00 hours); 24° C.; 55-60% rel. humidity; food and water ad libitum. Animals with regular 4-day cycles are injected on proestrus day at 13.00 h with the compound to be tested, subcutaneously or by the oral route. The next day at 9:00 a.m. the rats are sacrified and ova counted on both Fallopian tubes with the aid of a dissecting microscope. Only when no eggs are found is ovulation considered to be inhibited. The mean number of eggs per ovulating rat in each treatment groups is also determined.

[N-Ac-DPhe(Cl)^1,2, DTrp^3,DAla^10 ]-LHRH
ED50 inhibition of ovulation: 0.08 mg/kg
